Publication PMC9818267, “Brain Natriuretic Peptide Protects Cardiomyocytes from Apoptosis and Stimulates Their Cell Cycle Re-Entry in Mouse Infarcted Hearts” (Cells, 2022)
No end group written: not given here.

Assays:
cardiomyocytes (CMs) = assay: Immunostaining of cell cycle markers (BrdU, Ki67, pH3, Aurkb) in CMs of BNP-treated hearts; assay type: in vivo, mouse
Protocol: For all experiments with adult mice, BrdU (1 mg/mL) was added into the drinking water during the entire period of the experiments. BrdU (40 µL/mice, 10 mg/mL) was ip injected in newborn mice on day 5 and 9 after birth.
Cells or OCT heart sections (5 µm-thick cryosections) were washed in PBS 1X and fixed in paraformaldehyde (2%) or formol (4%) for 10 min at RT. After 10 min of permeabilization (0.3% Triton x-100 in PBS) and one hour of blocking with normal serum, sections were probed with primary antibodies overnight at 4 °C (Supplementary File S1). The second day, the secondary antibody was added on cells or heart sections. Slides were mounted with Dabco (Sigma) and pictures were captured with Nikon Eclipse TS100 or 90i microscope. Images were processed with Adobe Photoshop CC2015.
For the detection of BrdU incorporation, heart slides were fixed 10 min in 2% PFA, DNA was denatured 1 h at RT in HCl 2N before neutralization in Na Borate 0.1 M pH = 8.5 during 2 × 5 min. Then, sections were probed with primary antibodies overnight at 4 °C (Supplementary File S1).

DAPI+ Troponin I+ cells = assay: Flow cytometry of apoptotic CMs (DAPI+ Troponin I+ cells) after isolation; assay type: in vivo, mouse; conditions: CMs isolated from adult hearts injected during 2 weeks with BNP; saline 3.5 ± 0.5%
Troponin I+ GFP+ cells = assay: Flow cytometry count of Troponin I+ GFP+ cells in Myh6 MerCreMer hearts; assay type: in vivo, mouse; conditions: unmanipulated adult Myh6 MerCreMer mice, tamoxifen then BNP, two weeks after first BNP injection, vs saline
Protocol: Before surgery and/or BNP treatments, adult Myh6 MerCreMer mice (6-week-old) were injected with Tamoxifen (Sigma, Merck, Darmstadt, Germany, T5648) at 40 mg/kg to activate the Cre recombinase. Tamoxifen was dissolved in ethanol to a concentration of 100 mg/mL and emulsified in peanut oil to a final concentration of 10 mg/mL. A total of 1 mg Tamoxifen/25 g body weight was injected intraperitoneally (i.p) to adult mice one time. Two weeks after tamoxifen injection, 90–95% of pre-existing CMs expressed the GFP protein [11].
(§1) BNP was injected into infarcted adults, and unmanipulated neonatal and adult mice. Directly after surgery, NaCl (saline) or BNP (1.3 µg/20 g in 20 µL) was injected into the left ventricle cavity. At 24 h after MI, mice were intraperitoneal (ip) injected with BNP (2 µg/20 g mice) or saline every 2 days. C57BL/6 mice were sacrificed 1- and 14 days post-MI and Myh6 MerCreMer mice were sacrificed 14 days post-MI (Figure 1A). […]
Adult CMs were isolated using enzymatic digestion (see above). […] Cells were analyzed with CytoFLEX (Beckmann Coulter) cytometer and data generated using FlowJo 10 software (10.7.1 version, Becton Dickinson and Compagny, Franklin Lakes, NJ, USA). […] Cells were stained with DAPI and only the DAPI negative cells (living cells) were analyzed.

cGMP = conditions: BNP-treated infarcted mice, cited from earlier work
Protocol: In previous work, we followed the BNP kinetic by measuring the cGMP level in the hearts and plasma of BNP-treated infarcted mice. 30 min after BNP injections, the cGMP level is increased in the hearts of treated mice and returns to normal 1 h after injection. In the circulation of treated mice, cGMP level is increased from 1 h to 24 h after ...

[1] = Survival of infarcted mice at 14 days; assay type: in vivo, mouse; conditions: 14 days after MI; BNP ip every 2 days; saline group 83.9%
Protocol: To generate a permanent infarction, a ligation of the left anterior descending coronary artery (LAD) was performed in 6–8-week-old C57BL/6- or 8-week-old Myh6 MerCreMer mice, already injected with Tamoxifen 2 weeks before. Mice were anesthetized with ketamine/xylazine and acepromazine (65 mg/kg, 15 mg/kg, 2 mg/kg, respectively). Mice were intubated and ventilated during all the entire period of surgery. At the third intercostal space, the chest cavity was opened and at the left upper sterna border, the LAD coronary artery was ligated with a 7–0 nylon suture at about 1–2 mm from the atria. After surgery, Temgesic (Buprenorphine, 0.1 mg/kg) was injected subcutaneously as soon as the mice woken up and every 8–12 h for 2 days. Adult mice were sacrificed by lethal injection of pentobarbital (150 mg/kg intraperitoneally) 2 weeks after the surgery. The breathing arrest was controlled and cervical dislocation was performed.
as §1

[2] = infarct and border area 10 days after MI, BNP vs saline
[3] = neonatal BNP-treated hearts vs saline
[4] = unmanipulated adult hearts, BNP vs saline

## Brain Natriuretic Peptide (SQGSTLRVQQRPQNSKVTHISSCFGHKIDRIGSVSRLGCNALKLL; not fully specified; ends and bridges not checked; UniProt P40753 77-121, looked up) [BNP, synthetic mouse BNP (1–45) peptide (Bachem, catalog number H-7558)]
Cardiomyocytes (CMs); ZI+BZ of infarcted Myh6 MerCreMer mice injected with tamoxifen, BNP vs saline
  increase of percentage of BrdU+ GFP+ α actinin+ cells among GFP+ α actinin+ cells: 20%
Cardiomyocytes (CMs); [2]
  increase of percentage of CMs expressing Aurkb: 2.8 ×
  increase of percentage of CMs expressing Ki67: 50%
  increase of percentage of CMs expressing pH3: 40%
  increase of percentage of CMs incorporating BrdU: 70%
Cardiomyocytes (CMs); infarcted hearts, among Aurkb+ CMs, BNP vs saline
  number of Aurkb+ CMs undergoing cytokinesis or binucleation: slightly increased
Cardiomyocytes (CMs); [3]
  increase of number of Aurkb+ CMs undergoing cytokinesis or binucleation: 1.4 fold
  increase of number of CMs expressing Aurkb: 47.5%
  increase of number of CMs expressing Ki67: 15%
  increase of number of CMs expressing pH3: 41%
  increase of number of CMs incorporating BrdU: 23%
Cardiomyocytes (CMs); [4]
  increase of percentage of CMs expressing pH3: 94%
  increase of percentage of CMs incorporating BrdU: 67%
DAPI+ Troponin I+ cells
  percentage of DAPI+ CMs: 4 ± 1%
Troponin I+ GFP+ cells
  increase of number of Troponin I+ GFP+ cells: 28%
cGMP; 30 min after injection, returns to normal 1 h after injection
  cGMP level in the hearts: increased
cGMP; from 1 h to 24 h after injections
  cGMP level in the circulation: increased
[1]
  survival of infarcted mice: 84.2%
